{"source": "ChEMBL document CHEMBL5634130", "about": "“Exploring the structural-activity relationship of hexahydropyrazino[1,2-d]pyrido[3,2-b][1,4]oxazine derivatives as potent and orally-bioavailable PARP7 inhibitors” (Eur J Med Chem, 2023)", "key": {"MDA-MB-436 [1]": {"system": "MDA-MB-436", "assay": "Antiproliferative activity against human MDA-MB-436 cells assessed as inhibition of cell viability at 0.1 uM incubated for 7 days by luminescence based assay", "type": "functional", "details": "time 7.0 day"}, "MDA-MB-436 [2]": {"system": "MDA-MB-436", "assay": "Antiproliferative activity against human MDA-MB-436 cells assessed as inhibition of cell viability incubated for 7 days by luminescence based assay", "type": "functional", "details": "MDA-MB-436, 168 h"}, "RAW264.7": {"system": "RAW264.7", "assay": "Inhibition of PARP7 in mouse RAW264.7 cells assessed as increase in IFN-beta level incubated for 24 hrs by ELISA", "type": "cell-based"}, "[3]": {"target": "Poly [ADP-ribose] polymerase 1 (Homo sapiens, UniProt P09874)", "sequence (P09874 whole entry)": "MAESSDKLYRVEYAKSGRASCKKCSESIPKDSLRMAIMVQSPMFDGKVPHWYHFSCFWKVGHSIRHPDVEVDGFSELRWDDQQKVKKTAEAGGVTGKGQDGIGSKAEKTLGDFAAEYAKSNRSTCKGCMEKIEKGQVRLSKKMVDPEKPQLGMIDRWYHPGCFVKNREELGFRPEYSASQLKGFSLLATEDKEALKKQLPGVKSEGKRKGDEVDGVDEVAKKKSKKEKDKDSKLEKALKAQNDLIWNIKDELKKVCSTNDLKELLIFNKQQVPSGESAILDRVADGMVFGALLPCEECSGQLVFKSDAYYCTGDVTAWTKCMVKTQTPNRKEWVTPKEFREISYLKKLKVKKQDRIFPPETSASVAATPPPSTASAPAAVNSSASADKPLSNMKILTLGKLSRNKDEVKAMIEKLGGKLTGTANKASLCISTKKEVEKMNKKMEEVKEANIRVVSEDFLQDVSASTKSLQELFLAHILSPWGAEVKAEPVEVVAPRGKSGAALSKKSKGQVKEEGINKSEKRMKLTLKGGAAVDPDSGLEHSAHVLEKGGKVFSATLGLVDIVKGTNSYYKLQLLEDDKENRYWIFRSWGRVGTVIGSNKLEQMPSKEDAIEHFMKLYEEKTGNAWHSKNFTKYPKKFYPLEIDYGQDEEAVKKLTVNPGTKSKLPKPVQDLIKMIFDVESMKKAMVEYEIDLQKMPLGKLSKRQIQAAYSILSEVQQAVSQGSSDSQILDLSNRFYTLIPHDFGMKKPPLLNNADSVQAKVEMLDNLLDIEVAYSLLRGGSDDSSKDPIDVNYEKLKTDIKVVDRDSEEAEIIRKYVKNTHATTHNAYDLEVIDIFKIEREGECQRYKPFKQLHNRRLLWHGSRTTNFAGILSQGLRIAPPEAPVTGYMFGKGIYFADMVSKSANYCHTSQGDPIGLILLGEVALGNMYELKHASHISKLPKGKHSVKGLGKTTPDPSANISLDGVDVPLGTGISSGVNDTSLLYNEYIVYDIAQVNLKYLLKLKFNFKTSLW", "assay": "Inhibition of PARP1 (unknown origin)"}, "[4]": {"target": "Poly [ADP-ribose] polymerase 2 (Homo sapiens, UniProt Q9UGN5)", "sequence (Q9UGN5 whole entry)": "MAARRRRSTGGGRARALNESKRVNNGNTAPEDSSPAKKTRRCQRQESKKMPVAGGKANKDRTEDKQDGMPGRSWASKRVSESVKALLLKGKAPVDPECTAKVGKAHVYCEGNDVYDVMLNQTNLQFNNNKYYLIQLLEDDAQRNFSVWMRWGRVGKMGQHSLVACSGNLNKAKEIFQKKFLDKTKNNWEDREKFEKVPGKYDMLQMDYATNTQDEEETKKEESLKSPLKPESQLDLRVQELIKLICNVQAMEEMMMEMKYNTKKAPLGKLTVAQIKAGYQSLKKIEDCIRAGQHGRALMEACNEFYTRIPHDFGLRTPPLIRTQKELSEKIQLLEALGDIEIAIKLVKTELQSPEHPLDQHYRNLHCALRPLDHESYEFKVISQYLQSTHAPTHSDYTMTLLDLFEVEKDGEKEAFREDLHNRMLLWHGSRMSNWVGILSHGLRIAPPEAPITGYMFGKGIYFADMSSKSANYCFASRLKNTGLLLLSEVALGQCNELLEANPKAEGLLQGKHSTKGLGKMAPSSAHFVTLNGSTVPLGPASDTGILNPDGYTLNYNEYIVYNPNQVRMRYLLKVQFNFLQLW", "assay": "Inhibition of PARP2 (unknown origin)"}, "[5]": {"target": "T1, Protein mono-ADP-ribosyltransferase PARP11 (Homo sapiens, UniProt Q9NR21)", "T1 sequence (Q9NR21 whole entry)": "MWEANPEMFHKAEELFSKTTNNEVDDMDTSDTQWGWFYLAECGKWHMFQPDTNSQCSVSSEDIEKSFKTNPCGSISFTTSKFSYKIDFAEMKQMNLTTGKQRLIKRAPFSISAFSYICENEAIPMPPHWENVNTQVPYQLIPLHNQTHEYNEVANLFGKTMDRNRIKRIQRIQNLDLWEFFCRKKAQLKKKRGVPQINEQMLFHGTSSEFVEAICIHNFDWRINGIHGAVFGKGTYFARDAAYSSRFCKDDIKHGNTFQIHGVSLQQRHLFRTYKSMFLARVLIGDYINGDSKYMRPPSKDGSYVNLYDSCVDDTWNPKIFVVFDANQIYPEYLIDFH", "assay": "Inhibition of PARP11 (unknown origin)"}, "[6]": {"assay": "Clearance in fasted ICR mouse at 2 mg/kg, iv measured for 24 hrs by LC-MS analysis", "type": "ADME, organism-based", "details": "in vivo"}, "[7]": {"assay": "Half life in fasted ICR mouse at 2 mg/kg, iv measured for 24 hrs by LC-MS analysis", "type": "ADME, organism-based", "details": "in vivo"}, "[8]": {"assay": "Volume of distribution at steady state in fasted ICR mouse at 2 mg/kg, iv measured for 24 hrs by LC-MS analysis", "type": "ADME, organism-based", "details": "in vivo, read-out: Vdss"}, "[9]": {"assay": "Tmax in fasted ICR mouse at 10 mg/kg, po measured for 24 hrs by LC-MS analysis", "type": "ADME, organism-based", "details": "in vivo"}, "[10]": {"assay": "Half life in fasted ICR mouse at 10 mg/kg, po measured for 24 hrs by LC-MS analysis", "type": "ADME, organism-based", "details": "in vivo"}, "[11]": {"assay": "Toxicity in […] SCID mouse model xenografted with human NCI-H1373 cells assessed as body weight loss at 30 mg/kg, po measured for 21 days", "type": "organism-based", "details": "in vivo, 504 h, time 21 day"}, "[12]": {"assay": "AUC in fasted Beagle dog at 2 mg/kg, iv measured for 24 hrs by LC-MS analysis", "type": "ADME, organism-based, Canis lupus familiaris", "details": "Beagle, in vivo"}, "[13]": {"assay": "Volume of distribution at steady state in fasted Beagle dog at 2 mg/kg, iv measured for 24 hrs by LC-MS analysis", "type": "ADME, organism-based, Canis lupus familiaris", "details": "in vivo, read-out: Vdss"}, "[14]": {"assay": "Tmax in fasted Beagle dog at 10 mg/kg, po measured for 24 hrs by LC-MS analysis", "type": "ADME, organism-based, Canis lupus familiaris", "details": "in vivo"}, "[15]": {"assay": "Half life in fasted Beagle dog at 10 mg/kg, po measured for 24 hrs by LC-MS analysis", "type": "ADME, organism-based, Canis lupus familiaris", "details": "in vivo"}, "[16]": {"assay": "AUC in fasted Beagle dog at 10 mg/kg, po measured for 24 hrs by LC-MS analysis", "type": "ADME, organism-based, Canis lupus familiaris", "details": "in vivo"}, "[17]": {"assay": "Oral bioavailability in fasted Beagle dog at 10 mg/kg measured for 24 hrs by LC-MS analysis", "type": "ADME, organism-based, Canis lupus familiaris", "details": "in vivo"}, "[18]": {"assay": "Kinetic solubility of compound at pH 6.5", "type": "physicochemical", "details": "buffer, read-out: Kinetic_solubility"}, "[19]": {"assay": "Thermodynamic solubility of compound at pH 2", "type": "physicochemical", "details": "buffer, read-out: Therm_solubility"}, "[20]": {"assay": "Thermodynamic solubility of compound at pH 6.5", "type": "physicochemical", "details": "buffer, read-out: Therm_solubility"}, "[21]": {"assay": "Thermodynamic solubility of compound at pH 7.4", "type": "physicochemical", "details": "buffer, read-out: Therm_solubility"}, "[22]": {"assay": "Apparent permeability across basolateral to apical side in MDCKII-MDR1 cells incubated for 2 hrs by LC-MS analysis", "type": "ADME, cell-based, Canis lupus familiaris", "details": "dog, MDCK-MDR1"}, "[23]": {"assay": "Passive permeability in MDCKII-MDR1 cells incubated for 2 hrs by LC-MS analysis", "type": "ADME, cell-based, Canis lupus familiaris", "details": "dog, MDCK-MDR1, read-out: permeability"}, "[24]": {"assay": "Plasma protein binding in dog at 2 uM incubated for 1 hr by LC/MS analysis", "type": "ADME, cell-free, Canis lupus familiaris", "details": "read-out: PPB (converted)"}, "[25]": {"assay": "Plasma protein binding in rat at 2 uM incubated for 1 hr by LC/MS analysis", "type": "ADME, cell-free", "details": "read-out: PPB (converted)"}, "[26]": {"assay": "Plasma protein binding in mouse at 2 uM incubated for 1 hr by LC/MS analysis", "type": "ADME, cell-free", "details": "read-out: PPB (converted)"}, "[27]": {"assay": "Metabolic stability in monkey liver microsomes assessed as intrinsic clearance preincubated for 5 mins followed by NADPH addition measured for 1 hr by LC-MS analysis", "type": "ADME, Macaca mulatta, Microsome", "details": "rhesus monkey, time 65 min, read-out: CLH"}, "Cytochrome P450 1A2": {"target": "T2, Cytochrome P450 1A2 (Homo sapiens, UniProt P05177)", "T2 sequence (P05177 whole entry)": "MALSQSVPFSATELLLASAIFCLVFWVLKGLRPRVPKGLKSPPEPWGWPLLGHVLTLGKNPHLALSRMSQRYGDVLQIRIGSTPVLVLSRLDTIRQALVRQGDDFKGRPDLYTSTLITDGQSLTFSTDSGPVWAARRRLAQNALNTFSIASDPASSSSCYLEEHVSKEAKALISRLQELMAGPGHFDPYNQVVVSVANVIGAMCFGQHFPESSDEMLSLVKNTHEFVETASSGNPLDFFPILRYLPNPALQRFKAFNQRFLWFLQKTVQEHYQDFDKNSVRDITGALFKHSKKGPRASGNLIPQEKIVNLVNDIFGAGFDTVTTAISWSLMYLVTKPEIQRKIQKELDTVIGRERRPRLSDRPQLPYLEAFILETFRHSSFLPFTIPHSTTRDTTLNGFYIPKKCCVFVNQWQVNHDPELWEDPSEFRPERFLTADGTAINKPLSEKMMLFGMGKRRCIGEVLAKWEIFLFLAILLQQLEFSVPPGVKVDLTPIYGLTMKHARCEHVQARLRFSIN", "assay": "Inhibition of CYP1A2 in human liver microsomes using phenacetin as substrate preincubated for 10 mins followed by substrate addition measured for 30 mins by LC-MS analysis", "type": "ADME, Microsome"}, "Cytochrome P450 2C9": {"target": "Cytochrome P450 2C9 (Homo sapiens, UniProt P11712)", "sequence (P11712 whole entry)": "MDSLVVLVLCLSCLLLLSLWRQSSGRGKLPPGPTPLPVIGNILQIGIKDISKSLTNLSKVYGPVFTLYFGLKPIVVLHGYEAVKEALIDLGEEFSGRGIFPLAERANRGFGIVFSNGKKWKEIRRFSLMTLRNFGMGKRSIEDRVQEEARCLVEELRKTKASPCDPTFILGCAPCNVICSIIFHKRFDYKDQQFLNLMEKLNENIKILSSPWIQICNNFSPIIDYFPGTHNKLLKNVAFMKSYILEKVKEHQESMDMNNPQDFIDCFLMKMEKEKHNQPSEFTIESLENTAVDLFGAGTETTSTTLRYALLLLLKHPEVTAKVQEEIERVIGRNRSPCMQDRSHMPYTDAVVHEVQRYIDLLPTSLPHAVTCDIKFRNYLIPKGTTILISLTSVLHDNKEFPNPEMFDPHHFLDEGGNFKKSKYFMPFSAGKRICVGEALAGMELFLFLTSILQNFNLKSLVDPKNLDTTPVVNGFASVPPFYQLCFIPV", "assay": "Inhibition of CYP2C9 in human liver microsomes using diclofenac as substrate preincubated for 10 mins followed by substrate addition measured for 30 mins by LC-MS analysis", "type": "ADME, Microsome"}, "Cytochrome P450 2D6": {"target": "Cytochrome P450 2D6 (Homo sapiens, UniProt P10635)", "sequence (P10635 whole entry)": "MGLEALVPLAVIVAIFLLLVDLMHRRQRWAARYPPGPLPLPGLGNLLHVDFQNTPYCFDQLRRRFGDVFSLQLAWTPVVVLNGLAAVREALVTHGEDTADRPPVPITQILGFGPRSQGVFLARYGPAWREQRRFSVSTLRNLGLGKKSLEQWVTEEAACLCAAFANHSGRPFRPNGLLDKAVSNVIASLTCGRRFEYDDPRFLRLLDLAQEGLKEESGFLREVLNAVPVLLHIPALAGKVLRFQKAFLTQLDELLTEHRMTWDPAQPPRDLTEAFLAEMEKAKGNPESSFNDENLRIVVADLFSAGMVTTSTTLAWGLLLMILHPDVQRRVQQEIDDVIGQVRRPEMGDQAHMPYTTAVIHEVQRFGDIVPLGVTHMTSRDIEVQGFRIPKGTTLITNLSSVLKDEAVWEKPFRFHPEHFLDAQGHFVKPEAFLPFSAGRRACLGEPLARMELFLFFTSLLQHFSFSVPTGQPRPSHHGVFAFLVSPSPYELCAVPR", "assay": "Inhibition of CYP2D6 in human liver microsomes using dextromethorphan as substrate preincubated for 10 mins followed by substrate addition measured for 30 mins by LC-MS analysis", "type": "ADME, Microsome"}, "[28]": {"target": "Voltage-gated inwardly rectifying potassium channel KCNH2 (Homo sapiens, UniProt Q12809)", "sequence (Q12809 whole entry)": "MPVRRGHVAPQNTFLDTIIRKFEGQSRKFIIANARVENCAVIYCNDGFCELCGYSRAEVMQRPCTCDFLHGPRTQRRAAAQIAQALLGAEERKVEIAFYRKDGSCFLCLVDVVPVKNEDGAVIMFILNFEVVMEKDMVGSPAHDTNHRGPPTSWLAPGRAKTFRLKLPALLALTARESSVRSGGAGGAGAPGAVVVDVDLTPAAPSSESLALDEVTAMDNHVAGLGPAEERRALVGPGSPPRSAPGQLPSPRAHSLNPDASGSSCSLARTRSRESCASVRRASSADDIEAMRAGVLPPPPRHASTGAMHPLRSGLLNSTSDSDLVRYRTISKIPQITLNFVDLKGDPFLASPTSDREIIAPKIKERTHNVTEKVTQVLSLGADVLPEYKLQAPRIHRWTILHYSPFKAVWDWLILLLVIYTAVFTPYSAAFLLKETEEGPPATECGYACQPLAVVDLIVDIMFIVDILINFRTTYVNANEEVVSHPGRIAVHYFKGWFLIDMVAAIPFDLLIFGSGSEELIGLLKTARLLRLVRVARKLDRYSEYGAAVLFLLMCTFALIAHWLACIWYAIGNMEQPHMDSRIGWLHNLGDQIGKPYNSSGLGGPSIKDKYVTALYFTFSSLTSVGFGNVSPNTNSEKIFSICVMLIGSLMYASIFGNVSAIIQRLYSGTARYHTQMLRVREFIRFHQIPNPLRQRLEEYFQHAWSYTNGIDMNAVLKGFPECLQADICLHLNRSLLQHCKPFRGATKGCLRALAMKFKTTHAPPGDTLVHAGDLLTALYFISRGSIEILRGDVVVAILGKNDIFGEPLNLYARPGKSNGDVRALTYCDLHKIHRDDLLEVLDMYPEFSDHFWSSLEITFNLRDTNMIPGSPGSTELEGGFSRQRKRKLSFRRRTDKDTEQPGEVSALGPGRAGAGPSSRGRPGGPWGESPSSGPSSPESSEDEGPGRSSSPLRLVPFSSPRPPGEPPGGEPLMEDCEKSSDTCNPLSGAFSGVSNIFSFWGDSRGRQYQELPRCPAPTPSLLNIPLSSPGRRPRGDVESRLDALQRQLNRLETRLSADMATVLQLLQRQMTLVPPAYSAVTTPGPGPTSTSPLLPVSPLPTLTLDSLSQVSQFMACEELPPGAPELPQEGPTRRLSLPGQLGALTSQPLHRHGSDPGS", "assay": "Inhibition of hERG transfected in HEK293 cells at <10 uM by electrography", "type": "toxicity, cell-based", "details": "hek293, 10 µM"}}, "note": "Active and inactive are the calls of the source. No cut-off for these calls is given here."}
{"smiles": "O=C(CCOC[C@@H]1CCN1c1cn[nH]c(=O)c1C(F)(F)F)N1CCN2c3ncc(C(F)(F)F)cc3OC[C@@H]2C1", "values": [{"measurement": "Activity", "setting": "MDA-MB-436 [1]", "value": "inactive"}, {"measurement": "IC50", "setting": "MDA-MB-436 [2]", "value": "> 10000", "unit": "nM"}, {"measurement": "inhibition", "setting": "RAW264.7", "value": "Active"}, {"measurement": "IC50", "setting": "[3]", "value": 492, "unit": "nM"}, {"measurement": "IC50", "setting": "[4]", "value": 221, "unit": "nM"}, {"measurement": "IC50", "setting": "[5]", "value": "> 1000", "unit": "nM"}, {"measurement": "clearance", "setting": "[6]", "value": 49.2, "unit": "mL/min/kg"}, {"measurement": "half-life", "setting": "[7]", "value": 42, "unit": "min"}, {"measurement": "Vd", "setting": "[8]", "value": 1.77, "unit": "L/kg"}, {"measurement": "Tmax", "setting": "[9]", "value": 24, "unit": "min"}, {"measurement": "t1/2", "setting": "[10]", "value": 222, "unit": "min"}, {"measurement": "Activity", "setting": "[11]", "value": "Non-Toxic"}, {"measurement": "AUC at 24 h", "setting": "[12]", "value": 3480, "unit": "ng·h/mL"}, {"measurement": "Vd", "setting": "[13]", "value": 0.948, "unit": "L/kg"}, {"measurement": "Tmax", "setting": "[14]", "value": 24.6, "unit": "min"}, {"measurement": "t1/2", "setting": "[15]", "value": 216, "unit": "min"}, {"measurement": "AUC", "setting": "[16]", "value": 7860, "unit": "ng·h/mL"}, {"measurement": "bioavailability", "setting": "[17]", "value": 45.2, "unit": "%"}, {"measurement": "solubility kinetic", "setting": "[18]", "value": 154, "unit": "µM"}, {"measurement": "solubility thermodynamic", "setting": "[19]", "value": 601, "unit": "µg/mL"}, {"measurement": "solubility thermodynamic", "setting": "[20]", "value": 113, "unit": "µg/mL"}, {"measurement": "solubility thermodynamic", "setting": "[21]", "value": 114, "unit": "µg/mL"}, {"measurement": "Papp B→A at 2 h", "setting": "[22]", "value": 3.3, "unit": "×10⁻⁶ cm/s"}, {"measurement": "Papp at 2 h", "setting": "[23]", "value": 0.852, "unit": "×10⁻⁶ cm/s"}, {"measurement": "fraction unbound at 1 h, 2 µM", "setting": "[24]", "value": 0.006}, {"measurement": "fraction unbound at 1 h, 2 µM", "setting": "[25]", "value": 0.044}, {"measurement": "fraction unbound at 1 h, 2 µM", "setting": "[26]", "value": 0.019}, {"measurement": "CLint scaled", "setting": "[27]", "value": 79.2, "unit": "mL/min/kg"}, {"measurement": "IC50", "setting": "Cytochrome P450 1A2", "value": "> 30000", "unit": "nM"}, {"measurement": "IC50", "setting": "Cytochrome P450 2C9", "value": 2010, "unit": "nM"}, {"measurement": "IC50", "setting": "Cytochrome P450 2D6", "value": "> 30000", "unit": "nM"}, {"measurement": "inhibition (INH)", "setting": "[28]", "value": "Not Active"}]}
